pEC50, pIC50: −log10 of the molar value.
Tests used:
A549 cells = test: Proliferation Assay (A549 cell viability, Cell Titer Fluor); assay type: cell-based; settings: Homo sapiens, 72 hours
Method in brief: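 Fluorescence read-out (Cell Titer Fluor, 30 min at 37 °C after reagent) after 72 h compound exposure of A549 cells; EC50 by four-parameter logistic curve fit. Cells: 1000/well, RPMI 1640 + 10% dialyzed FBS, 0.5% DMSO final.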

[1] = target: T1, purified recombinant human GAC (GLS1) (Homo sapiens, UniProt O94925); test: GLS1 Enzymatic Activity Assay (dual-coupled enzymatic assay); assay type: biochemical
T1 sequence (O94925 55-598 isoform O94925-3 limits assumed): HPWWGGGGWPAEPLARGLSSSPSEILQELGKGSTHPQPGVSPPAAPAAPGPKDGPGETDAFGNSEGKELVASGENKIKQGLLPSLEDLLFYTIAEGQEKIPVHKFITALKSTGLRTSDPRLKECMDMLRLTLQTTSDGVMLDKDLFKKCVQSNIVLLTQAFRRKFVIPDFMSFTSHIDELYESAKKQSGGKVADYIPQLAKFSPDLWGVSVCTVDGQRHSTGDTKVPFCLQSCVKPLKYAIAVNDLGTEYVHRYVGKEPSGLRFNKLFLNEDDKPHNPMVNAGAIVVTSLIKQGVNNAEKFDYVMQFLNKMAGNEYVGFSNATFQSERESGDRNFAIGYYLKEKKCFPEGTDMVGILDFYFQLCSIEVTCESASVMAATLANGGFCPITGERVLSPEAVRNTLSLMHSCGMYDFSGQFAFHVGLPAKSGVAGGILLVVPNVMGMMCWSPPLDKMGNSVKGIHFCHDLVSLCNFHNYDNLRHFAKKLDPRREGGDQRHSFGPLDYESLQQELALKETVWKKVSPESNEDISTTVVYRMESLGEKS
Method in brief: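 GAC activity measured by coupling glutamate to glutamate oxidase and HRP, generating resorufin from Amplex UltraRed. Enzyme (2 nM) preincubated with 50 mM potassium phosphate 10 min at room temperature, then inhibitor 10 min; 1 mM glutamine substrate, 1% DMSO. Fluorescence 530/590 nm, kinetic or 20-min endpoint; IC50 from four-parameter logistic fit.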

## CC(C)(O)c1ccc(CNC(=O)c2cn(CCCCc3cc4c(-c5ccc(F)cc5F)c(C5CC5)[nH]c4nn3)nn2)cn1 [Example 161, 1-{4-[6-cyclopropyl-5-(2,4-difluorophenyl)-7H-pyrrolo[2,3-c]pyridazin-3-yl]butyl}-N-{[6-(2-hydroxypropan-2-yl)pyridin-3-yl]methyl}-1H-1,2,3-triazole-4-carboxamide]
A549 cells
  pEC50: 6.30 to 7.00
[1]
  pIC50: > 7.00

## CC(C)(O)c1ccc(CNC(=O)c2cn(CCCCc3cc4c(-c5ccc(C(F)(F)F)cc5)c(C5CC5)[nH]c4nn3)nn2)cn1 [Example 162, 1-(4-{6-cyclopropyl-5-[4-(trifluoromethyl)phenyl]-7H-pyrrolo[2,3-c]pyridazin-3-yl}butyl)-N-{[6-(2-hydroxypropan-2-yl)pyridin-3-yl]methyl}-1H-1,2,3-triazole-4-carboxamide]
A549 cells
  pEC50: 6.30 to 7.00
[1]
  pIC50: > 7.00

## Cc1ccc(CNC(=O)c2cn(CCCCc3cc4c(-c5ccc(C(F)(F)F)cc5)c(C5CC5)[nH]c4nn3)nn2)cn1 [Example 163, 1-(4-{6-cyclopropyl-5-[4-(trifluoromethyl)phenyl]-7H-pyrrolo[2,3-c]pyridazin-3-yl}butyl)-N-[(6-methylpyridin-3-yl)methyl]-1H-1,2,3-triazole-4-carboxamide]
A549 cells
  pEC50: 6.30 to 7.00
[1]
  pIC50: > 7.00

## CC(C)(O)c1ccc(CNC(=O)c2cn(CCCCc3cc4c(-c5ccc(OC(F)(F)F)cc5)c(C5CC5)[nH]c4nn3)nn2)cn1 [Example 164, 1-(4-{6-cyclopropyl-5-[4-(trifluoromethoxy)phenyl]-7H-pyrrolo[2,3-c]pyridazin-3-yl}butyl)-N-{[6-(2-hydroxypropan-2-yl)pyridin-3-yl]methyl}-1H-1,2,3-triazole-4-carboxamide]
A549 cells
  pEC50: 6.30 to 7.00
[1]
  pIC50: > 7.00

## Cc1ccc(CNC(=O)c2cn(CCCCc3cc4c(-c5ccc(OC(F)(F)F)cc5)c(C5CC5)[nH]c4nn3)nn2)cn1 [Example 165, 1-(4-{6-cyclopropyl-5-[4-(trifluoromethoxy)phenyl]-7H-pyrrolo[2,3-c]pyridazin-3-yl}butyl)-N-[(6-methylpyridin-3-yl)methyl]-1H-1,2,3-triazole-4-carboxamide]
A549 cells
  pEC50: 6.30 to 7.00
[1]
  pIC50: > 7.00

## CC(C)(O)c1ccc(CNC(=O)c2cn(CCCCc3cc4c(-c5cccc(C(F)(F)F)c5)c(C5CC5)[nH]c4nn3)nn2)cn1 [Example 166, 1-(4-{6-cyclopropyl-5-[3-(trifluoromethyl)phenyl]-7H-pyrrolo[2,3-c]pyridazin-3-yl}butyl)-N-{[6-(2-hydroxypropan-2-yl)pyridin-3-yl]methyl}-1H-1,2,3-triazole-4-carboxamide]
A549 cells
  pEC50: 6.30 to 7.00
[1]
  pIC50: > 7.00

## Cc1ccc(CNC(=O)c2cn(CCCCc3cc4c(-c5cccc(C(F)(F)F)c5)c(C5CC5)[nH]c4nn3)nn2)cn1 [Example 167, 1-(4-{6-cyclopropyl-5-[3-(trifluoromethyl)phenyl]-7H-pyrrolo[2,3-c]pyridazin-3-yl}butyl)-N-[(6-methylpyridin-3-yl)methyl]-1H-1,2,3-triazole-4-carboxamide]
A549 cells
  pEC50: 6.30 to 7.00
[1]
  pIC50: > 7.00

## COc1ncc(-c2c(C3CC3)[nH]c3nnc(CCCCn4cc(C(=O)NCc5ccc(C)nc5)nn4)cc23)c(OC)n1 [Example 168, 1-{4-[6-cyclopropyl-5-(2,4-dimethoxypyrimidin-5-yl)-7H-pyrrolo[2,3-c]pyridazin-3-yl]butyl}-N-[(6-methylpyridin-3-yl)methyl]-1H-1,2,3-triazole-4-carboxamide]
A549 cells
  pEC50: 5.30 to 6.30
[1]
  pIC50: > 7.00

## CC(C)(O)c1ccc(CNC(=O)c2cn(CCCCc3cc4c(-c5cccc(OC(F)(F)F)c5)c(C5CC5)[nH]c4nn3)nn2)cn1 [Example 169, 1-(4-{6-cyclopropyl-5-[3-(trifluoromethoxy)phenyl]-7H-pyrrolo[2,3-c]pyridazin-3-yl}butyl)-N-{[6-(2-hydroxypropan-2-yl)pyridin-3-yl]methyl}-1H-1,2,3-triazole-4-carboxamide]
A549 cells
  pEC50: 6.30 to 7.00
[1]
  pIC50: > 7.00

## Cc1ccc(CNC(=O)c2cn(CCCCc3cc4c(-c5cccc(OC(F)(F)F)c5)c(C5CC5)[nH]c4nn3)nn2)cn1 [Example 170, 1-(4-{6-cyclopropyl-5-[3-(trifluoromethoxy)phenyl]-7H-pyrrolo[2,3-c]pyridazin-3-yl}butyl)-N-[(6-methylpyridin-3-yl)methyl]-1H-1,2,3-triazole-4-carboxamide]
A549 cells
  pEC50: 6.30 to 7.00
[1]
  pIC50: > 7.00

## CC(C)(O)c1ccc(CNC(=O)c2cn(CCCCc3cc4c(-c5ccoc5)c(C5CC5)[nH]c4nn3)nn2)cn1 [Example 171, 1-{4-[6-cyclopropyl-5-(furan-3-yl)-7H-pyrrolo[2,3-c]pyridazin-3-yl]butyl}-N-{[6-(2-hydroxypropan-2-yl)pyridin-3-yl]methyl}-1H-1,2,3-triazole-4-carboxamide]
A549 cells
  pEC50: > 7.00
[1]
  pIC50: > 7.00

## Cc1ccc(CNC(=O)c2cn(CCCCc3cc4c(-c5ccoc5)c(C5CC5)[nH]c4nn3)nn2)cn1 [Example 172, 1-{4-[6-cyclopropyl-5-(furan-3-yl)-7H-pyrrolo[2,3-c]pyridazin-3-yl]butyl}-N-[(6-methylpyridin-3-yl)methyl]-1H-1,2,3-triazole-4-carboxamide]
A549 cells
  pEC50: > 7.00
[1]
  pIC50: > 7.00

## COc1ncc(-c2c(C3CC3)[nH]c3nnc(CCCCn4cc(C(=O)NCc5cccc(OC(F)(F)F)c5)nn4)cc23)c(OC)n1 [Example 173, 1-{4-[6-cyclopropyl-5-(2,4-dimethoxypyrimidin-5-yl)-7H-pyrrolo[2,3-c]pyridazin-3-yl]butyl}-N-{[3-(trifluoromethoxy)phenyl]methyl}-1H-1,2,3-triazole-4-carboxamide]
A549 cells
  pEC50: 6.30 to 7.00
[1]
  pIC50: > 7.00

## CC(C)(O)c1ccc(CNC(=O)c2cn(CCCCc3cc4c(C5CC5)c(-c5ccccc5F)[nH]c4nn3)nn2)cn1 [Example 174, 1-{4-[5-cyclopropyl-6-(2-fluorophenyl)-7H-pyrrolo[2,3-c]pyridazin-3-yl]butyl}-N-{[6-(2-hydroxypropan-2-yl)pyridin-3-yl]methyl}-1H-1,2,3-triazole-4-carboxamide]
A549 cells
  pEC50: 6.30 to 7.00
[1]
  pIC50: > 7.00

## O=C(NCc1cccc(OC(F)(F)F)c1)c1cn(CCCCc2cc3c(-c4ccccn4)c(-c4ccccc4F)[nH]c3nn2)nn1 [Example 175, 1-{4-[6-(2-fluorophenyl)-5-(pyridin-2-yl)-7H-pyrrolo[2,3-c]pyridazin-3-yl]butyl}-N-{[3-(trifluoromethoxy)phenyl]methyl}-1H-1,2,3-triazole-4-carboxamide]
A549 cells
  pEC50: 5.30 to 6.30
[1]
  pIC50: > 7.00

## COc1cccc(-c2cc3cc(CCCCn4cc(C(=O)NCc5ccc(C)nc5)nn4)nnc3[nH]2)c1 [Example 176, 1-{4-[6-(3-methoxyphenyl)-7H-pyrrolo[2,3-c]pyridazin-3-yl]butyl}-N-[(6-methylpyridin-3-yl)methyl]-1H-1,2,3-triazole-4-carboxamide]
A549 cells
  pEC50: 6.30 to 7.00
[1]
  pIC50: > 7.00

## O=C(NCc1cccc(OC(F)(F)F)c1)c1cn(CCCCc2cc3c(C4CC4)c(-c4ccccn4)[nH]c3nn2)nn1 [Example 177, 1-(4-(5-cyclopropyl-6-(pyridin-2-yl)-7H-pyrrolo[2,3-c]pyridazin-3-yl)butyl)-N-(3-(trifluoromethoxy)benzyl)-1H-1,2,3-triazole-4-carboxamide 2,2,2-trifluoroacetate]
A549 cells
  pEC50: 5.30 to 6.30
[1]
  pIC50: > 7.00

## COc1cccnc1-c1c(C2CC2)[nH]c2nnc(CCCCn3cc(C(=O)NCc4cccc(OC(F)(F)F)c4)nn3)cc12 [Example 178, 1-{4-[6-cyclopropyl-5-(3-methoxypyridin-2-yl)-7H-pyrrolo[2,3-c]pyridazin-3-yl]butyl}-N-{[3-(trifluoromethoxy)phenyl]methyl}-1H-1,2,3-triazole-4-carboxamide]
A549 cells
  pEC50: 6.30 to 7.00
[1]
  pIC50: > 7.00

## CC(=O)Nc1ccc(-c2c(C3CC3)[nH]c3nnc(CCCCn4cc(C(=O)NCc5ccc(C)nc5)nn4)cc23)cc1 [Example 179, 1-{4-[6-cyclopropyl-5-(4-acetamidophenyl)-7H-pyrrolo[2,3-c]pyridazin-3-yl]butyl}-N-[(6-methylpyridin-3-yl)methyl]-1H-1,2,3-triazole-4-carboxamide]
A549 cells
  pEC50: 5.30 to 6.30
[1]
  pIC50: > 7.00

## CC(=O)Nc1ccc(-c2c(C3CC3)[nH]c3nnc(CCCCn4cc(C(=O)NCc5cccc(OC(F)(F)F)c5)nn4)cc23)cc1 [Example 180, 1-{4-[6-cyclopropyl-5-(4-acetamidophenyl)-7H-pyrrolo[2,3-c]pyridazin-3-yl]butyl}-N-{[3-(trifluoromethoxy)phenyl]methyl}-1H-1,2,3-triazole-4-carboxamide]
A549 cells
  pEC50: 5.30 to 6.30
[1]
  pIC50: > 7.00

## NS(=O)(=O)c1cccc(-c2c(C3CC3)[nH]c3nnc(CCCCn4cc(C(=O)NCc5cccc(OC(F)(F)F)c5)nn4)cc23)c1 [Example 181, 1-{4-[6-cyclopropyl-5-(3-sulfamoylphenyl)-7H-pyrrolo[2,3-c]pyridazin-3-yl]butyl}-N-{[3-(trifluoromethoxy)phenyl]methyl}-1H-1,2,3-triazole-4-carboxamide]
A549 cells
  pEC50: 5.30 to 6.30
[1]
  pIC50: > 7.00

— patent US20160002248A1, “GLS1 INHIBITORS FOR TREATING DISEASE” (Board of Regents, The University of Texas System, priority 2014, published 2016)
